Measurements as given in patent US20150065440A1 (Progen Pharmaceuticals Limited, priority 2007, published 2015).

Tests used:
HSV-2 [1] = experiment: Anti-HSV screening assay (viral plaques), HSV-2; type: cell-based; conditions: 100 μg/mL, viral plaques relative to mock treated controls
Method: (§1) African green monkey kidney (GMK AH1) cells^46 were cultured in Eagle's minimum essential medium (EMEM) supplemented with 2% calf serum, 0.05% Primaton RL substance (Kraft Inc., Norwich, USA) and antibiotics. Human epidermoid carcinoma (HEp-2) cells were cultured in Dulbecco's modified EMEM (DMEM) supplemented with 10% fetal calf serum and antibiotics. […] The RSV strain A-2^50 was used. The RSV stock was prepared as described by Hallak et al.^51 and stored at −70° C. in the presence of 40% sucrose^52.
(§2) The viral infectivity (the plaque number-reduction) assay and the plaque size-reduction assay were carried out as described previously^17. […] Subsequently, the cells were washed with 2 mL of EMEM and overlaid with 1% methylcellulose solution in EMEM. The plaques were visualized by staining with crystal violet solution after 2 (HSV-2) or 3 (HSV-1) days of incubation at 37° C. […] When the compounds were screened for anti-HSV or anti-RSV activity, mixtures of 200 PFU of the virus and the test compound (100 μg/mL) in serum-free EMEM were incubated for 10 min at room temperature before addition to cells and during the entire period of viral infection of cells and the development of viral plaques. In the plaque size-reduction assay, the compounds were added to cells (in methylcellulose overlay medium) after 2 h period of virus infection of cells in the absence of the inhibitor. After 2-3 days of incubation at 37° C., the viral plaques were visualized by staining the cells with 1% solution of crystal violet. For each compound tested, the images of twenty neighboring plaques were captured using a Leica DC300 digital camera attached to a Leitz-Wetzlar Diavert microscope. The area of each plaque was determined using IM500 image software (Leica). Similar protocols were used for RSV, except that the assays were performed in HEp-2 cells and DMEM supplemented with 2% heat-inactivated fetal calf serum was used instead of EMEM.

VEGF = target: T1, VEGF (Homo sapiens, UniProt P15692); experiment: Growth factor binding assay (SPR solution affinity), VEGF; conditions: HBS-EP buffer, 25° C.
T1 sequence (P15692 207-395): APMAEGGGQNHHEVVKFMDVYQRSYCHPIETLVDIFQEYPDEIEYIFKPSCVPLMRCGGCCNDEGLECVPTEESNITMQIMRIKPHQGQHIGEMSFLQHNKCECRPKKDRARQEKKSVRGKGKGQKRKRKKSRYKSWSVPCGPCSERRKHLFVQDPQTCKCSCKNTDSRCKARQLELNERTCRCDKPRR
In short: (§3)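 Kd measured by SPR solution affinity: fixed growth factor with varying ligand competing for heparin-coated sensorchip, 25 °C. Buffer HBS-EP pH 7.4 (150 mM NaCl) for FGF-1 and VEGF; FGF-2 with 0.3 M NaCl. Duplicate values averaged.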

FGF-2 = FGF-2 (Homo sapiens, UniProt P09038); experiment: Growth factor binding assay (SPR solution affinity), FGF-2; conditions: SPR, HBS-EP buffer containing 0.3 M NaCl, 25° C.; read-out: Kd FGF-2
Sequence of FGF-2 (P09038 143-288, species assumed): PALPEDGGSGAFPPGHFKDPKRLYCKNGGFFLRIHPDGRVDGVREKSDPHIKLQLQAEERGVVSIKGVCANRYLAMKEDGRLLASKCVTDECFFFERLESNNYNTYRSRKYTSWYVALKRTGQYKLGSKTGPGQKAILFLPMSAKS
In short: as §3

FGF-1 = FGF-1 (Homo sapiens, UniProt P05230); experiment: Growth factor binding assay (SPR solution affinity), FGF-1; conditions: SPR, HBS-EP buffer, 25° C.; read-out: Kd FGF-1
Sequence of FGF-1 (P05230 whole entry, species assumed): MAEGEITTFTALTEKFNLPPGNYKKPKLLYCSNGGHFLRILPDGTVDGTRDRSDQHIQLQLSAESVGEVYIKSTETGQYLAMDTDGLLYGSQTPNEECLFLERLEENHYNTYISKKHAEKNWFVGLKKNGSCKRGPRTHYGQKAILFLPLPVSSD

HSV-1 [2] = experiment: Anti-HSV screening assay (viral plaques), HSV-1; type: cell-based; conditions: 100 μg/mL, viral plaques relative to mock treated controls
Method: as §1, §2

[3] = target: T2, recombinant human heparanase (Homo sapiens, UniProt Q9Y251); experiment: Heparanase inhibition assay (fondaparinux cleavage, WST-1); conditions: read-out: Ki Heparanase; IC50 converted into Ki; fondaparinux 100 μM, pH 5.0
T2 sequence (Q9Y251 158-543 limits assumed): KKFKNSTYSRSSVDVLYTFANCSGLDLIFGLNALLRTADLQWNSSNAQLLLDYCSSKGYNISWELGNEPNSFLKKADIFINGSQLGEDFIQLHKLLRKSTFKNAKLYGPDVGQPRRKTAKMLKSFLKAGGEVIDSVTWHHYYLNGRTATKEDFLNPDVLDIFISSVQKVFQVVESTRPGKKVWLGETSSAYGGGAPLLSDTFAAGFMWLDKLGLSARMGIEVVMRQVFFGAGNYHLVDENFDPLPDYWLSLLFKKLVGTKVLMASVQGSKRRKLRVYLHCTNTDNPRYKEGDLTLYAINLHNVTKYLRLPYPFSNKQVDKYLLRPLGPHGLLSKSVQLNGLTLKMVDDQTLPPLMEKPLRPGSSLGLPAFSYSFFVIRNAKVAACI
T2 sequence (Q9Y251 36-109 limits assumed): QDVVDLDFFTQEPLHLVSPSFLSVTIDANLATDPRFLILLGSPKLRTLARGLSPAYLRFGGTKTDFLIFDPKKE

RSV = experiment: Anti-RSV screening assay (viral plaques); type: cell-based; conditions: 100 μg/mL, viral plaques relative to mock treated controls
Method: as §1, §2

HSV-1 [4] = experiment: Viral plaque number-reduction assay, HSV-1; conditions: GMK AH1 cells
Method: as §1, §2

GMK AH1 cells = experiment: Cytotoxicity assay, GMK AH1; type: cell-based, African green monkey; conditions: cell viability reduced by 50%
Method: The assay was performed in GMK AH1 cells that had been seeded in 96 well cluster plates and reached approximately 80-90% confluence at day 2 of culture. The cells were washed with EMEM and incubated for 24 h at 37° C. with 100 μL of serial two-fold dilutions of the test compound in serum-free EMEM. The effect of the test compound on cell viability was measured by using the tetrazolium-based CellTiter96 assay according to the manufacturer's protocol (Promega, Madison, Wis., USA).

HSV-2 [5] = experiment: Viral plaque number-reduction assay, HSV-2; conditions: GMK AH1 cells
Method: as §1, §2

Row | Structure (SMILES) | Residual infectivity (%) HSV-2 (HSV-2 [1]) [%] | Kd (VEGF) [nM] | Kd (FGF-2) [nM] | Kd (FGF-1) [nM] | Residual infectivity (%) HSV-1 (HSV-1 [2]) [%] | Ki [3] [nM] | Residual infectivity (%) RSV (RSV) [%] | Selective index CC50/IC50 HSV-1 (HSV-1 [4]) | Cytotoxicity CC50 GMK AH1 (GMK AH1 cells) [µg/mL] | Selective index CC50/IC50 HSV-2 (HSV-2 [5])
1 | O=S(=O)(O)OCC1OC(OC2C(OCCCCCCCCCCCCn3cc(-c4ccccc4)nn3)OC(COS(=O)(=O)O)C(OS(=O)(=O)O)C2OS(=O)(=O)O)C(OS(=O)(=O)O)C(OC2OC(COS(=O)(=O)O)C(OS(=O)(=O)O)C(OC3OC(COS(=O)(=O)O)C(OS(=O)(=O)O)C(OC4OC(COS(=O)(=O)O)C(OS(=O)(=O)O)C(OS(=O)(=O)O)C4OS(=O)(=O)O)C3OS(=O)(=O)O)C2OS(=O)(=O)O)C1OS(=O)(=O)O [Compound 8, 12-(4-Phenyl-[1,2,3]triazol-1-yl)dodecyl 2,3,4,6-tetra-O-sodium sulfonato-α-D-mannopyranosyl-(1→3)-2,4,6-tri-O-sodium sulfonato-α-D-mannopyranosyl-(1→3)-2,4,6-tri-O-sodium sulfonato-α-D-mannopyranosyl-(1→3)-2,4,6-tri-O-sodium sulfonato-α-D-mannopyranosyl-(1→2)-3,4,6-tri-O-sodium sulfonato-α-D-mannopyranoside] | 0.2 | 5.1 ± 1.8 | 253 ± 25 | 2.3 ± 1.3 | 7 | 3.5 ± 0.4 | 3 | – | – | –
2 | O=S(=O)(O)OCC1OC(OC2C(OCCCCCCCCCCCCn3cc(-c4cccc5ccccc45)nn3)OC(COS(=O)(=O)O)C(OS(=O)(=O)O)C2OS(=O)(=O)O)C(OS(=O)(=O)O)C(OC2OC(COS(=O)(=O)O)C(OS(=O)(=O)O)C(OC3OC(COS(=O)(=O)O)C(OS(=O)(=O)O)C(OC4OC(COS(=O)(=O)O)C(OS(=O)(=O)O)C(OS(=O)(=O)O)C4OS(=O)(=O)O)C3OS(=O)(=O)O)C2OS(=O)(=O)O)C1OS(=O)(=O)O [Compound 11, 12-(4-Naphthalen-1-yl-[1,2,3]triazol-1-yl)dodecyl 2,3,4,6-tetra-O-sodium sulfonato-α-D-mannopyranosyl-(1→3)-2,4,6-tri-O-sodium sulfonato-α-D-mannopyranosyl-(1→3)-2,4,6-tri-O-sodium sulfonato-α-D-mannopyranosyl-(1→3)-2,4,6-tri-O-sodium sulfonato-α-D-mannopyranosyl-(1→2)-3,4,6-tri-O-sodium sulfonato-α-D-mannopyranoside] | 0 | 0.79 ± 0.24 | 73 ± 23 | 0.19 ± 0.1 | 0 | 4.8 ± 1.8 | 0 | > 222 | >400 | > 444
